Data on 14 compounds can be found in patent publication US20160031868A1, “BENZIMIDAZOLONE DERIVATIVES AS BROMODOMAIN INHIBITORS” (GILEAD SCIENCES, INC., priority 2013, published 2016).

The pEC50 is the negative decadic logarithm of the EC50, by convention in mol/L. One may read the CC50 as the concentration giving 50% cytotoxicity.

Data set [1] relates to c-Myc produced in MM1S cells. The data set is described as follows: c-Myc down regulation assay (MSD ELISA) in MM1S cells. The format is cell-based. The following applies: Homo sapiens, MM1.S, 24 hrs incubation, geometric mean, read-out: cMYC EC50. The protocol:
An enzyme linked immunosorbent assay using the Meso Scale Diagnostic (MSD) technology was used to detect levels of c-Myc produced in MM1S cells (ATCC). MM1S cells were cultured in RPMI-1640 media (Corning), supplemented with 10% FBS (Hyclone), 1% penicillin-streptomycin (Cellgro), 2-mercaptoethanol (Gibco) and seeded onto 384-tissue culture treated filter binding plates (Millipore) at a density of 40K cells/well containing titrations of small molecule inhibitors or DMSO (0.4%) in a volume of 100 μl of media. After an incubation time of 24 hrs, cells were lysed (1× lysis buffer (Thermo) supplemented with protease and phosphatase inhibitor cocktail (Thermo)) and the plates centrifuged (1000 rpm, 1 min) to capture c-Myc on MSD plates coated with a monoclonal c-Myc antibody (Origene). Assay wells were washed (3× Invitrogen wash buffer) and probed with a polyclonal c-Myc antibody (Abcam) and MSD detection antibody solution in order to detect levels of c-Myc on the MSD platform. c-Myc capture was reported in pg/ml based on a standard curve using recombinant c-Myc protein (Prosci). EC50 values were calculated from the fit of the dose-response curves to a four-parameter equation. All EC50 values represent geometric mean values of a minimum of four determinations. These assays generally produced results within 3-fold of the reported mean.

Data set [2] in a line: MT-4 proliferation assay in 384-well format (Cell Titer Glo). The format is cell-based, human. Particulars: human, MT-4 cells, Table 2, 50% decrease in luminescence signal, read-out: CC50 MT4 384. The protocol:
Compounds were tested in a standardized high-throughput 384-well assay format. Each compound was serially diluted 3-fold in 100% DMSO in polypropylene 384-well plates using a Biomek FX Workstation, and 0.4 μL compound added to an assay plate containing 40 μL RPMI media. Compounds were arranged in a horizontal pattern, with 10 concentrations per compound, and 8 compounds added per plate. Due to low DMSO tolerability, the final DMSO concentration never exceeded 0.5% (v/v). Each assay plate contained 10 μM Puromycin and 0.5% DMSO in RPMI-1640 as positive and negative controls respectively. MT-4 cells (HTLV-1 transformed, human T lymphoblastoid cells, NIH Aids Reagent program) were added in volumes of 35 μL per well and 2,000 cells per well using a Biotek uFlow Workstation (Biotek, Winooski, Vt.), and the plates subsequently incubated for 5 days at 37° C. in an incubator set at 5% CO2 and 90% humidity.
After 5 days, 22 μL Cell Titer Glo (Promega) was added to the assay plates with a Biotek uFlow Workstation. Plates were subsequently placed on a Perkin Elmer Envision Plate Reader for 5 minutes before the luminescence signal was read. CC50 values were calculated from the compound concentration that caused a 50% decrease in luminescence signal, a measure of toxicity, and calculated by non-linear regression using Pipeline Pilot software (Accelrys, San Diego, Calif.).
(In ATP-based viability assays light output follows the ATP content of the culture.)

The target in a further data set is T1, BRD4-2 (Homo sapiens, UniProt O60885).
T1 construct: made in house; host or cells: Escherichia coli
As to the kind of experiment: BRD4-2 Ligand KI assay (TR-FRET displacement of Cy5 labeled probe). The format is binding. The protocol:
(§1) BRD4-I and BRD4-2 were expressed and purified from Escherichia coli as N-terminal His6-tagged proteins. A Eu-cryptate labeled anti-His antibody (Perkin Elmer) was used to specifically bind BRD4. […] Assays were performed in 50 mM Hepes (pH 7.5), 150 mM NaCl, 0.1 mg/ml BSA, 0.01% (v/v) Brij, 0.5% (v/v) DMSO and 10 nM labeled ligand at the following concentrations for each BRD4 isoform: 2 nM BRD4-1 and 0.5 nM BRD4-2. After an assay reaction time of 60 minutes at 25° C., binding was measured with 2 nM Eu-cryptate labeled anti-His antibody. TR-FRET signal was detected on an Envision plate reader (Ex: 320 nm; Em: 615/665 nm; 100 μs delay and 200 μs read window). Data were normalized based on a positive (2 μM I-BET) and negative (DMSO) controls and IC50 values were calculated from the fit of the dose-response curves to a four-parameter equation. All IC50 values represent geometric mean values of a minimum of four determinations. The IC50 values were converted to Ki values (dissociation constant for BRD4-inhibitor complex) using the Cheng and Prusoff equation for a competitive inhibitor mode of action.
On the technique in general: TR-FRET usually uses a lanthanide donor and a delayed reading to cut background.

For another data set, the target named is T2, BRD4-1 (Homo sapiens, UniProt O60885).
T2 construct: made in house; host or cells: Escherichia coli
The data set is described as follows: BRD4-1 Ligand KI assay (TR-FRET displacement of Cy5 labeled probe). The format is binding. As for the experimental part: Binding of the two tandem bromodomains, BRD4-I and BRD4-2, to a Cy5 labeled probe/ligand (Compound 201-A) were measured using a homogeneous time resolved fluorescence resonance energy transfer (TR-FRET) assay.
as §1, with “The labeled ligand specifically binds BRD4-1 and BRD4-2 and can be displaced by a small molecule inhibitor that shares a similar or overlapping binding site. BRD4-I” for “BRD4-I”, “action. These assays generally produced results within 3-fold of the reported mean.” for “action.”

Setting [3] is: 10 nM labeled ligand, 0.5 nM BRD4-2, Ki from IC50 by Cheng and Prusoff, read-out: BRD4-2 Ligand K2.
Where [4] appears, read: 10 nM labeled ligand, 2 nM BRD4-1, Ki from IC50 by Cheng and Prusoff, read-out: BRD4-1 Ligand K1.

pEC50, pKi: −log10 of the molar value. Like-named read-outs stand apart in the source and are kept apart here.

`Cc1noc(C)c1-c1cc(-c2c(C3CC3)n[nH]c2C2CC2)c2[nH]c(=O)[nH]c2c1` [Example 23, 4-(3,5-dicyclopropyl-1H-pyrazol-4-yl)-6-(3,5-dimethylisoxazol-4-yl)-1H-benzo[d]imidazol-2(3H)-one]: the pEC50 in data set [1] was 7.88. Moreover, the cytotoxic concentration (CC50) at 5 days in data set [2] was 9.1 nM. In addition, the pKi at BRD4-2 (setting [3]) was 8.52; on BRD4-1 (setting [4]), 7.89.
For the compound `Cc1noc(C)c1-c1cc(C(O)(c2ccccc2)c2ccc3ccc(F)cc3n2)c2[nH]c(=O)[nH]c2c1` (stereo not drawn) [Example 33, 6-(3,5-dimethylisoxazol-4-yl)-4-((7-fluoroquinolin-2-yl)(hydroxy)(phenyl)methyl)-1H-benzo[d]imidazol-2(3H)-one], in data set [1], the pEC50 is 6.75. In addition, the CC50 at 5 days in data set [2] was found to be 29.1 nM. Also, the pKi on BRD4-2 (setting [3]) was 8.28; on BRD4-1 (setting [4]), 7.85.
In the same order, the values of `Cc1noc(C)c1-c1cc(C(O)(c2ccccn2)c2ccc3ccc(F)cc3n2)c2[nH]c(=O)[nH]c2c1` (stereo not drawn) [Example 36, 6-(3,5-dimethylisoxazol-4-yl)-4-((7-fluoroquinolin-2-yl)(hydroxy)(pyridin-2-yl)methyl)-1H-benzo[d]imidazol-2(3H)-one] are 6.75, 29.1 nM, 8.28 and 7.85.
Consider `Cc1noc(C)c1-c1cc(C(O)(c2ccc(F)cn2)c2c(F)cccc2F)c2[nH]c(=O)[nH]c2c1` (stereo not drawn) [Example 38, 4-((2,6-difluorophenyl)(5-fluoropyridin-2-yl)(hydroxy)methyl)-6-(3,5-dimethylisoxazol-4-yl)-1H-benzo[d]imidazol-2(3H)-one], for which, in data set [1], the pEC50 is 7.07. The CC50 at 5 days in data set [2] was 29.7 nM. Moreover, the pKi on BRD4-2 (setting [3]) was 8.36; on BRD4-1 (setting [4]) it was 8.11.
In the same order, the values of `Cc1noc(C)c1-c1cc(C(O)(c2ccc(F)cn2)c2ccc(F)cc2F)c2[nH]c(=O)[nH]c2c1` (stereo not drawn) [Example 39, 4-((2,4-difluorophenyl)(5-fluoropyridin-2-yl)(hydroxy)methyl)-6-(3,5-dimethylisoxazol-4-yl)-1H-benzo[d]imidazol-2(3H)-one] are 6.89, 42.1 nM, 8.23 and 7.93.
As for `Cc1noc(C)c1-c1cc(C(O)(c2ccc(F)cn2)c2cc(F)ccc2F)c2[nH]c(=O)[nH]c2c1` (stereo not drawn) [Example 41, 4-((2,5-difluorophenyl)(5-fluoropyridin-2-yl)(hydroxy)methyl)-6-(3,5-dimethylisoxazol-4-yl)-1H-benzo[d]imidazol-2(3H)-one], the pEC50 in data set [1] is 6.98. The CC50 at 5 days in data set [2] came to 47.3 nM. Further, the pKi is 8.30 on BRD4-2 (setting [3]) and 7.89 on BRD4-1 (setting [4]).
With `Cc1noc(C)c1-c1cc(C(O)(c2cnccn2)c2c(F)cccc2F)c2[nH]c(=O)[nH]c2c1` (stereo not drawn) [Example 49, 4-((2,6-difluorophenyl)(hydroxy)(pyrazin-2-yl)methyl)-6-(3,5-dimethylisoxazol-4-yl)-1H-benzo[d]imidazol-2(3H)-one], in data set [2], the 50% cytotoxic concentration (CC50) at 5 days was 9.7 nM. In addition, the pKi at BRD4-1 (setting [4]) is 8.09.
For `Cc1noc(C)c1-c1cc(C(O)(c2cccnn2)c2c(F)cccc2F)c2[nH]c(=O)[nH]c2c1` (stereo not drawn) [Example 50, 4-((2,6-difluorophenyl)(hydroxy)(pyridazin-3-yl)methyl)-6-(3,5-dimethylisoxazol-4-yl)-1H-benzo[d]imidazol-2(3H)-one], in data set [2], the CC50 at 5 days stood at 16 nM. In addition, the results for the pKi at BRD4-2 (setting [3]) and at BRD4-1 (setting [4]) were 8.23 and 8.06, respectively.
For `Cc1noc(C)c1-c1cc(C(O)(c2ccc(F)cn2)c2c(F)cc(F)cc2F)c2[nH]c(=O)[nH]c2c1` (stereo not drawn) [Example 52, 6-(3,5-dimethylisoxazol-4-yl)-4-((5-fluoropyridin-2-yl)(hydroxy)(2,4,6-trifluorophenyl)methyl)-1H-benzo[d]imidazol-2(3H)-one], the pEC50 in data set [1] is 6.87. The CC50 at 5 days in data set [2] amounted to 36.1 nM. The pKi on BRD4-2 (setting [3]) was 8.19; at BRD4-1 (setting [4]) it was 8.05.
For `Cc1noc(C)c1-c1cc(C(O)(c2ccccn2)c2ccc(Cl)cn2)c2[nH]c(=O)[nH]c2c1` (stereo not drawn) [Example 54, 4-((5-chloropyridin-2-yl)(hydroxy)(pyridin-2-yl)methyl)-6-(3,5-dimethylisoxazol-4-yl)-1H-benzo[d]imidazol-2(3H)-one], the pEC50 in data set [1] is 6.95. In addition, the CC50 at 5 days in data set [2] is 27.1 nM. Moreover, the pKi at BRD4-2 was 7.85; on BRD4-1 it was 7.64.
Take `Cc1noc(C)c1-c1cc(C(O)(c2ccc(Cl)cn2)c2ccc(Cl)cn2)c2[nH]c(=O)[nH]c2c1` [Example 55, 4-(bis(5-chloropyridin-2-yl)(hydroxy)methyl)-6-(3,5-dimethylisoxazol-4-yl)-1H-benzo[d]imidazol-2(3H)-one]: the pEC50 in data set [1] is 6.85. In data set [2], the CC50 at 5 days stood at 41 nM. Also, the pKi at BRD4-2 (setting [3]) is 7.74; at BRD4-1 (setting [4]) it was 7.84.
The corresponding values for `Cc1noc(C)c1-c1cc(C(O)(c2cnccn2)c2c(F)cc(F)cc2F)c2[nH]c(=O)[nH]c2c1` (stereo not drawn) [Example 56, 6-(3,5-dimethylisoxazol-4-yl)-4-(hydroxy(pyrazin-2-yl)(2,4,6-trifluorophenyl)methyl)-1H-benzo[d]imidazol-2(3H)-one] are 7.39, 24.8 nM, 8.44 and 8.22.
On to `Cc1noc(C)c1-c1cc(-c2cccnc2C2CC2)c2[nH]c(=O)[nH]c2c1` [Example 73, 4-(2-cyclopropylpyridin-3-yl)-6-(3,5-dimethylisoxazol-4-yl)-1H-benzo[d]imidazol-2(3H)-one], for which the pEC50 in data set [1] is 6.81. In data set [2], the CC50 at 5 days worked out at 61 nM. For the same compound, the pKi was 7.62 at BRD4-2 (setting [3]) and 7.47 at BRD4-1 (setting [4]).
As to `Cc1noc(C)c1-c1cc(C(O)(c2ccccn2)C2CCCCC2)c2[nH]c(=O)[nH]c2c1` (stereo not drawn) [Example 144, 4-(cyclohexyl(hydroxy)(pyridin-2-yl)methyl)-6-(3,5-dimethylisoxazol-4-yl)-1H-benzo[d]imidazol-2(3H)-one], the pKi at BRD4-2 (setting [3]) was 8.57; on BRD4-1 (setting [4]) it was 8.11.
